Here are results for 19 compounds from PubChem BioAssay AID200 (DTP/NCI, 2004).

Several values for one entry are separate records, joined by “and”; a condition that tells them apart may be missing. Identical values can stand only once. Inconclusive results and toxic doses are left out.

This assay relates to B6C3F1 mice, B16 melanoma ip, median survival T/C. Briefly: NCI In Vivo Anticancer Drug Screen. Data for tumor model B16 Melanoma (intraperitoneal) in B6C3F1 mice. As to conditions: endpoint: median survival time, higher = longer survival. How it is done:
The antitumor activity of compounds was measured in mice bearing transplantable tumors. Survival or tumor size were measured and the results are expressed as the measurement made in the treated group (T) divided by the measurement made in the vehicle treated control group (C). The tumor model used in this assay is B16 Melanoma (intraperitoneal) in B6C3F1 mice

[1] abbreviates: dose: 100.0 mg/kg/injection, schedule: Q01DX009 (ip), vehicle: saline with Tween-80.
Where [2] appears, read: dose: 25.0 mg/kg/injection, schedule: Q01DX009 (ip), vehicle: saline with Tween-80.
[3] abbreviates: dose: 50.0 mg/kg/injection, schedule: Q01DX009 (ip), vehicle: saline with Tween-80.
Where [4] appears, read: dose: 3.12 mg/kg/injection, schedule: Q01DX009 (ip), vehicle: saline with Tween-80.
Setting [5] is: dose: 6.25 mg/kg/injection, schedule: Q01DX009 (ip), vehicle: saline with Tween-80.
Where [6] appears, read: dose: 12.5 mg/kg/injection, schedule: Q01DX009 (ip), vehicle: saline with Tween-80.
Setting [7] is: dose: 25.0 mg/kg/injection, schedule: Q01DX009 (ip), vehicle: saline.
Setting [8] is: dose: 50.0 mg/kg/injection, schedule: Q01DX009 (ip), vehicle: saline.
Where [9] appears, read: dose: 100.0 mg/kg/injection, schedule: Q01DX009 (ip), vehicle: saline.
Where [10] appears, read: dose: 200.0 mg/kg/injection, schedule: Q01DX009 (ip), vehicle: saline.
[11] abbreviates: dose: 400.0 mg/kg/injection, schedule: Q01DX009 (ip), vehicle: saline.
Where [12] appears, read: dose: 25.0 mg/kg/injection, schedule: Q01DX009 (ip), vehicle: Klucel (hydroxypropylcellulose) (HPC).
Setting [13] is: dose: 50.0 mg/kg/injection, schedule: Q01DX009 (ip), vehicle: Klucel (hydroxypropylcellulose) (HPC).
The mark [14] stands for this setting: dose: 100.0 mg/kg/injection, schedule: Q01DX009 (ip), vehicle: Klucel (hydroxypropylcellulose) (HPC).
[15] abbreviates: dose: 200.0 mg/kg/injection, schedule: Q01DX009 (ip), vehicle: Klucel (hydroxypropylcellulose) (HPC).

For `CC(C)CCC(=O)c1ccoc1`, the T/C (dose: 0.12 mg/kg/injection, schedule: Q03HX027 (ip), vehicle: saline with Tween-80) was 100 % of control; the T/C (dose: 0.25 mg/kg/injection, schedule: Q01DX009 (ip), vehicle: saline with Tween-80) was 100 % of control; the T/C (dose: 0.25 mg/kg/injection, schedule: Q03HX027 (ip), vehicle: saline with Tween-80) was 98 % of control; the T/C (dose: 0.5 mg/kg/injection, schedule: Q01DX009 (ip), vehicle: saline with Tween-80) is 100 % of control; the T/C (dose: 0.5 mg/kg/injection, schedule: Q03HX027 (ip), vehicle: saline with Tween-80) was 107 % of control; the T/C (dose: 1.0 mg/kg/injection, schedule: Q01DX009 (ip), vehicle: saline with Tween-80) was 102 % of control. For the same compound, the T/C (dose: 1.0 mg/kg/injection, schedule: Q03HX027 (ip), vehicle: saline with Tween-80) is 88 % of control; the T/C (dose: 2.0 mg/kg/injection, schedule: Q01DX009 (ip), vehicle: saline with Tween-80) was 102 % of control; the T/C (dose: 2.0 mg/kg/injection, schedule: Q03HX027 (ip), vehicle: saline with Tween-80) was 107 % of control.

As to `COc1nc2c(=O)[nH]c(N)nc2n1C1OC(CO)C(O)C1O` (centres undefined), the T/C by setting is: under setting [1], 96 % of control; (dose: 200.0 mg/kg/injection, schedule: Q01DX009 (ip), vehicle: saline with Tween-80) 93 % of control; (dose: 400.0 mg/kg/injection, schedule: Q01DX009 (ip), vehicle: saline with Tween-80) 91 % of control.

In the case of `O=C(Nc1cc(Cl)ccc1C(=O)O)c1cccc(C[n+]2ccccc2)c1`, the T/C under setting [2] was 101 % of control, the T/C under setting [3] is 94 % of control and the T/C under setting [1] was 94 % of control.

`O=C(O)CC(NC(=O)CP(=O)(O)O)C(=O)O.[NH-]C1CCCCC1[NH-].[Pt+2]` (centres undefined): the T/C reads like this: (dose: 0.78 mg/kg/injection, schedule: Q01DX009 (ip), vehicle: dextrose) 157 % of control; (dose: 3.12 mg/kg/injection, schedule: Q01DX009 (ip), vehicle: dextrose) 175 % of control.

On to `Nc1ccc(S(=O)(=O)N/N=C/c2ccccc2[N+](=O)[O-])cc1`, for which the T/C reads like this: under setting [4], 95 % of control; under setting [5], 95 % of control; under setting [6], 96 % of control; under setting [2], 101 % of control; under setting [3], 104 % of control.

On to `CCCC(NC(=O)CN)C(=O)O` (centres undefined), for which the T/C by setting is: under setting [7], 108 % of control; under setting [8], 100 % of control; under setting [9], 99 % of control; under setting [10], 94 % of control; under setting [11], 108 % of control.

For `O=C1NC(c2ccccc2)N=C2Oc3ccccc3C=C12` (centres undefined), the T/C runs as follows: (dose: 1.56 mg/kg/injection, schedule: Q01DX009 (ip), vehicle: saline with Tween-80) 101 % of control; under setting [4], 103 % of control; (dose: 3.13 mg/kg/injection, schedule: Q01DX009 (ip), vehicle: saline with Tween-80) 97 % of control; under setting [5], 118 % of control and 124 % of control; under setting [6], 116 % of control and 122 % of control; under setting [3], 113 % of control.

`Cc1c2ccccc2cc2cccc[n+]12`: the T/C is, setting by setting: (dose: 2.5 mg/kg/injection, schedule: Q01DX009 (ip), vehicle: saline) 106 % of control and 107 % of control; (dose: 5.0 mg/kg/injection, schedule: Q01DX009 (ip), vehicle: saline) 101 % of control and 104 % of control; (dose: 10.0 mg/kg/injection, schedule: Q01DX009 (ip), vehicle: saline) 102 % of control and 107 % of control; (dose: 20.0 mg/kg/injection, schedule: Q01DX009 (ip), vehicle: saline) 99 % of control and 101 % of control.

On to `CC(/C=C/C1OC(=O)C=CC1C)=C\C(C)C/C=C/C(C)=C/C(C)C(=O)C(C)C(O)C(C)C/C(C)=C/C(=O)O` (centres undefined), for which the T/C by setting is: (dose: 12.5 micrograms/kg/injection, schedule: Q01DX009 (ip), vehicle: saline + alcohol) 170 % of control and 184 % of control; (dose: 25.0 micrograms/kg/injection, schedule: Q01DX009 (ip), vehicle: saline + alcohol) 176 % of control and 224 % of control.

`Cc1cc2c(cc1C)C(=O)c1c(O)c3c(c(O)c1C2=O)C[C@@](O)(C(=O)CO)C[C@@H]3OC1CC(N)C(O)C(C)O1` (some centres undefined): the T/C (dose: 2.5 mg/kg/injection, schedule: Q01DX001 (ip), vehicle: water) is 193 % of control; the T/C (dose: 5.0 mg/kg/injection, schedule: Q01DX001 (ip), vehicle: water) is 162 % of control and 193 % of control; the T/C (dose: 10.0 mg/kg/injection, schedule: Q01DX001 (ip), vehicle: water) is 213 % of control and 236 % of control; the T/C (dose: 20.0 mg/kg/injection, schedule: Q01DX001 (ip), vehicle: water) is 155 % of control and 240 % of control.

`CN(C)CC(=O)c1ccc(O)c(O)c1`: the T/C under setting [9] is 104 % of control; the T/C under setting [10] is 114 % of control and 102 % of control; the T/C under setting [11] is 122 % of control and 108 % of control.

With `Cc1ccc(C2NC(=S)N3C(c4ccc(C)cc4)NC(=S)N23)cc1` (centres undefined), the T/C runs as follows: under setting [12], 119 % of control; under setting [13], 114 % of control; under setting [14], 118 % of control; under setting [15], 109 % of control and 88 % of control; (dose: 400.0 mg/kg/injection, schedule: Q01DX009 (ip), vehicle: Klucel (hydroxypropylcellulose) (HPC)) 114 % of control and 105 % of control; (dose: 800.0 mg/kg/injection, schedule: Q01DX009 (ip), vehicle: Klucel (hydroxypropylcellulose) (HPC)) 101 % of control.

Turning to `N=C(N)c1ccc(N=Nc2c(O)ccc3cc(O)ccc23)cc1`, the T/C by setting is: (dose: 0.19 mg/kg/injection, schedule: Q01DX009 (ip), vehicle: Klucel (hydroxypropylcellulose) (HPC)) 114 % of control; (dose: 0.39 mg/kg/injection, schedule: Q01DX009 (ip), vehicle: Klucel (hydroxypropylcellulose) (HPC)) 99 % of control; (dose: 0.78 mg/kg/injection, schedule: Q01DX009 (ip), vehicle: Klucel (hydroxypropylcellulose) (HPC)) 92 % of control; (dose: 1.56 mg/kg/injection, schedule: Q01DX009 (ip), vehicle: Klucel (hydroxypropylcellulose) (HPC)) 92 % of control; (dose: 6.25 mg/kg/injection, schedule: Q01DX009 (ip), vehicle: Klucel (hydroxypropylcellulose) (HPC)) 97 % of control; (dose: 12.5 mg/kg/injection, schedule: Q01DX009 (ip), vehicle: Klucel (hydroxypropylcellulose) (HPC)) 97 % of control. Further, the T/C is 87 % of control under setting [12] and 89 % of control under setting [13].

In the case of `COC(=O)[C@@]12OC[C@]34[C@H]([C@@H](O)[C@@H]1O)[C@@]1(C)CC(=O)C(O)=C(C)[C@@H]1C[C@H]3OC(=O)[C@H](OC(=O)CC(C)C)[C@@H]24`, the T/C is, setting by setting: (dose: 1.0 mg/kg/injection, schedule: Q01DX009 (ip), vehicle: saline + alcohol) 156 % of control and 157 % of control; (dose: 2.0 mg/kg/injection, schedule: Q01DX009 (ip), vehicle: saline + alcohol) 180 % of control.

`O=C(NC(Cc1c[nH]c2ccccc12)C(=O)O)OCC1c2ccccc2-c2ccccc21` (centres undefined): the T/C runs as follows: under setting [12], 102 % of control; under setting [13], 92 % of control; under setting [14], 103 % of control.

Take `COc1cccc2c1C(=O)c1c(O)c3c(c(O)c1C2=O)C[C@@](O)(C(=O)CO)C[C@@H]3OC1CC(OC(C)=O)C(OC(C)=O)C(C)O1` (some centres undefined): the T/C reads like this: (dose: 6.25 mg/kg/injection, schedule: Q01DX009 (ip), vehicle: distilled water + Tween-80) 178 % of control; (dose: 12.5 mg/kg/injection, schedule: Q01DX001 (ip), vehicle: distilled water + Tween-80) 150 % of control; (dose: 25.0 mg/kg/injection, schedule: Q01DX001 (ip), vehicle: distilled water + Tween-80) 159 % of control and 195 % of control; (dose: 50.0 mg/kg/injection, schedule: Q01DX001 (ip), vehicle: distilled water + Tween-80) 176 % of control and 202 % of control.

`O=C(O)C1CCCN1C(=O)OCc1ccccc1` (centres undefined): the T/C by setting is: under setting [13], 97 % of control; under setting [15], 89 % of control.

As for `Oc1ccc(O)cc1`, the T/C was 101 % of control (dose: 3.13 mg/kg/injection, schedule: Q01DX009 (ip), vehicle: saline); 88 % of control (dose: 6.25 mg/kg/injection, schedule: Q01DX009 (ip), vehicle: saline); 95 % of control (dose: 12.5 mg/kg/injection, schedule: Q01DX009 (ip), vehicle: saline); 110 % of control under setting [7]; 98 % of control under setting [8].

In the case of `CN1c2ccc3ccccc3c2Sc2ccc3ccccc3c21`, the T/C is 100 % of control under setting [9], 100 % of control under setting [10] and 118 % of control under setting [11].
